# Data published in PubChem BioAssay (NCI).
#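 Results reflect a 48-hour exposure of cells in 96-well plates to compound at five concentrations. TGI: concentration producing complete growth inhibition.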
# Assays:
# Assay in all cases: inhibition of tumour cell growth, NCI panel, 48 h
# [1] = tested on: UACC-257 melanoma
# [2] = tested on: HT29 colon
# [3] = tested on: SN12C renal
# [4] = tested on: HCT-15 colon
# [5] = tested on: ACHN renal
# [6] = tested on: SF-268 CNS
# [7] = tested on: T-47D breast
# [8] = tested on: A549 NSCLC
# [9] = tested on: MCF7 breast
# [10] = tested on: U251 CNS
# [11] = tested on: BT-549 breast
# [12] = tested on: MOLT-4 leukemia
# [13] = tested on: HOP-62 NSCLC
# [14] = tested on: M14 melanoma
# [15] = tested on: SNB-19 CNS
# [16] = tested on: SF-539 CNS
# [17] = tested on: SW-620 colon
# [18] = tested on: MDA-N
# [19] = tested on: NCI-H460 lung
# [20] = tested on: LOX IMVI melanoma
# [21] = tested on: OVCAR-5 ovarian
# [22] = tested on: UO-31 renal
# [23] = tested on: NCI-H23 lung
# [24] = tested on: SR leukemia
# [25] = tested on: SF-295 CNS
# [26] = tested on: NCI/ADR-RES ovarian
# [27] = tested on: OVCAR-3 ovarian
# [28] = tested on: 786-0 renal
# [29] = tested on: MALME-3M melanoma
# [30] = tested on: COLO 205 colon
# [31] = tested on: TK-10 renal
# [32] = tested on: K-562 leukemia
# [33] = tested on: CCRF-CEM leukemia
# [34] = tested on: MDA-MB-231 breast
# [35] = tested on: SK-OV-3 ovarian
# [36] = tested on: RXF 393 renal
# [37] = tested on: HCT-116 colon
# [38] = tested on: OVCAR-4 ovarian
# [39] = tested on: PC-3 prostate
# [40] = tested on: SK-MEL-5 melanoma
# [41] = tested on: HOP-92 NSCLC
# [42] = tested on: HS 578T breast
# [43] = tested on: IGROV1 ovarian
# [44] = tested on: DU-145 prostate
# [45] = tested on: HL-60(TB) leukemia
# [46] = tested on: NCI-H522 lung
# [47] = tested on: SNB-75 CNS
# [48] = tested on: RPMI-8226 leukemia
# [49] = tested on: KM12 colon
# [50] = tested on: UACC-62 melanoma
# [51] = tested on: NCI-H226 lung
# [52] = tested on: EKVX NSCLC
# [53] = tested on: SK-MEL-2 melanoma
# [54] = tested on: CAKI-1 renal
# [55] = tested on: A498 renal
# [56] = tested on: MDA-MB-435
# [57] = tested on: HCC-2998 colon
# [58] = tested on: OVCAR-8 ovarian
# [59] = tested on: SK-MEL-28 melanoma
smiles,measurement,setting,value
NC1=Nc2ccccc2Sc2nc3ccccc3n21,TGI,[1],> 100 µM
same,TGI,[2],31.3 µM
same,TGI,[3],> 100 µM
same,TGI,[4],> 100 µM
same,TGI,[5],> 100 µM
same,TGI,[6],> 100 µM
same,TGI,[7],> 100 µM
same,TGI,[8],> 100 µM
same,TGI,[9],> 100 µM
same,TGI,[10],> 100 µM
same,TGI,[11],> 100 µM
same,TGI,[12],> 100 µM
same,TGI,[13],> 100 µM
same,TGI,[14],82.4 µM
same,TGI,[15],> 100 µM
same,TGI,[16],> 100 µM
same,TGI,[17],> 100 µM
same,TGI,[18],> 100 µM
same,TGI,[19],> 100 µM
same,TGI,[20],> 100 µM
same,TGI,[21],> 100 µM
same,TGI,[22],40.9 µM
same,TGI,[23],> 100 µM
same,TGI,[24],> 100 µM
same,TGI,[25],> 100 µM
same,TGI,[26],> 100 µM
same,TGI,[27],> 100 µM
same,TGI,[28],5.23 µM
same,TGI,[29],> 100 µM
same,TGI,[30],> 100 µM
same,TGI,[31],> 100 µM
same,TGI,[32],> 100 µM
same,TGI,[33],> 100 µM
same,TGI,[34],> 100 µM
same,TGI,[35],77.9 µM
same,TGI,[36],> 100 µM
same,TGI,[37],32.8 µM
same,TGI,[38],> 100 µM
same,TGI,[39],> 100 µM
same,TGI,[40],> 100 µM
same,TGI,[41],> 100 µM
same,TGI,[42],> 100 µM
same,TGI,[43],> 100 µM
same,TGI,[44],> 100 µM
same,TGI,[45],6.49 µM
same,TGI,[46],> 100 µM
same,TGI,[47],> 100 µM
same,TGI,[48],> 100 µM
same,TGI,[49],> 100 µM
same,TGI,[50],> 100 µM
same,TGI,[51],> 100 µM
CC(=O)c1[nH]c(Nc2ccc(C)cc2)c(C(=S)Nc2ccccc2)c1N,TGI,[1],36.5 µM
same,TGI,[2],> 100 µM
same,TGI,[3],35 µM
same,TGI,[52],96.7 µM
same,TGI,[53],31.9 µM
same,TGI,[54],35.6 µM
same,TGI,[55],28.8 µM
same,TGI,[4],46.1 µM
same,TGI,[5],36.2 µM
same,TGI,[6],30.2 µM
same,TGI,[7],37.2 µM
same,TGI,[8],30.7 µM
same,TGI,[9],30.6 µM
same,TGI,[10],29.9 µM
same,TGI,[11],31.6 µM
same,TGI,[12],> 100 µM
same,TGI,[13],42.1 µM
same,TGI,[14],36.4 µM
same,TGI,[15],42.9 µM
same,TGI,[16],> 100 µM
same,TGI,[17],96.9 µM
same,TGI,[18],37.2 µM
same,TGI,[19],31.9 µM
same,TGI,[20],33.3 µM
same,TGI,[56],30.9 µM
same,TGI,[57],56.5 µM
same,TGI,[21],> 100 µM
same,TGI,[58],39.4 µM
same,TGI,[22],28.4 µM
same,TGI,[23],42.8 µM
same,TGI,[24],> 100 µM
same,TGI,[25],39.7 µM
same,TGI,[26],89.4 µM
same,TGI,[27],35.5 µM
same,TGI,[28],34.3 µM
same,TGI,[29],31.9 µM
same,TGI,[30],> 100 µM
same,TGI,[31],35.5 µM
same,TGI,[32],72.2 µM
same,TGI,[33],62.1 µM
same,TGI,[34],35.7 µM
same,TGI,[35],> 100 µM
same,TGI,[36],27.9 µM
same,TGI,[37],35.4 µM
same,TGI,[38],54.9 µM
same,TGI,[40],31 µM
same,TGI,[41],35.9 µM
same,TGI,[42],52.3 µM
same,TGI,[59],45.3 µM
same,TGI,[43],35.7 µM
same,TGI,[44],34.2 µM
same,TGI,[45],54.1 µM
same,TGI,[46],32.5 µM
same,TGI,[47],50.3 µM
same,TGI,[49],34.8 µM
same,TGI,[50],31.7 µM
same,TGI,[51],32.4 µM
CN(C)c1ccc2cc3ccc(N(C)C)cc3nc2c1,TGI,[1],24.8 µM
same,TGI,[2],1.81 µM
same,TGI,[3],7.28 µM
same,TGI,[52],7.21 µM
same,TGI,[53],21.9 µM
same,TGI,[54],13.5 µM
same,TGI,[55],9.01 µM
same,TGI,[4],2.94 µM
same,TGI,[5],3.67 µM
same,TGI,[6],6.26 µM
same,TGI,[7],36.4 µM
same,TGI,[8],7.49 µM
same,TGI,[9],11.5 µM
same,TGI,[10],5.79 µM
same,TGI,[11],22.1 µM
same,TGI,[13],7.18 µM
same,TGI,[14],8.15 µM
same,TGI,[15],3.95 µM
same,TGI,[16],6.53 µM
same,TGI,[18],3.03 µM
same,TGI,[19],1.99 µM
same,TGI,[20],3.63 µM
same,TGI,[56],13 µM
same,TGI,[57],2.64 µM
same,TGI,[21],9.82 µM
same,TGI,[58],5.62 µM
same,TGI,[22],4.11 µM
same,TGI,[23],6.17 µM
same,TGI,[25],15.2 µM
same,TGI,[26],5.06 µM
same,TGI,[27],13.4 µM
same,TGI,[28],2.26 µM
same,TGI,[29],10.1 µM
same,TGI,[30],22.8 µM
same,TGI,[31],9.21 µM
same,TGI,[32],21.6 µM
same,TGI,[34],2.89 µM
same,TGI,[35],13.9 µM
same,TGI,[36],22.7 µM
same,TGI,[38],3.37 µM
same,TGI,[39],9.48 µM
same,TGI,[40],8.34 µM
same,TGI,[41],20 µM
same,TGI,[42],10.7 µM
same,TGI,[59],16.3 µM
same,TGI,[43],17.3 µM
same,TGI,[44],4.29 µM
same,TGI,[45],3.66 µM
same,TGI,[46],7.56 µM
same,TGI,[47],11.9 µM
same,TGI,[48],4.09 µM
same,TGI,[49],1.85 µM
same,TGI,[50],28.2 µM
same,TGI,[51],19.9 µM
